For the test, the system named is phenylquinone-induced writhing. Put plainly: Analgesia test in the phenylquinone-induced writhing test in mice. The class given is in vivo. The following applies: male NMRI mice; 10 mg/kg intravenous, 10 minutes before phenylquinone i.p.; writhing counted 5–20 minutes after phenylquinone. As for the experimental part: The in-depth investigation for analgesic activity was carried out in the phenylquinone-induced writhing in mice (modified by I. C. Hendershot, J. Forsaith, J. Pharmacol. Exp. Ther. 125, 237–240 (1959)). Male NMRI mice weighing 25–30 g were used for this. Groups of 10 animals per substance dose received 0.3 ml/mouse of a 0.02% aqueous solution of phenylquinone (phenylbenzoquinone, Sigma, Deisenhofen; preparation of the solution with the addition of 5% ethanol and storage in a water bath at 45° C.) administered intraperitoneally 10 minutes after intravenous administration of the test substances. The animals were placed individually in observation cages. The number of pain-induced stretching movements (so-called writhing reactions=straightening of the body with stretching of the hind extremities) were counted by means of a push-button counter for 5–20 minutes after the administration of phenylquinone. Animals which received only physiological saline solution were also run as a control.
The substances were tested in the standard dose of 10 mg/kg. The inhibition of the writhing reactions by a substance was calculated according to the following equation: […]
The in-depth investigation for analgesic activity was carried out in the phenylquinone-induced writhing in mice as described above.
On the technique in general: In writhing tests, fewer writhes than in controls are read as antinociception.
For the compound `COc1ccc(COc2c(C(c3ccccc3)N(C)C)ccc3ccccc23)cc1` (stereo not drawn) [Example 37, {[1-(4-Methoxy-benzyloxy)-naphthalen-2-yl]-phenylmethyl}-dimethylamine], the “Inhibition of the writhing reaction in %” value was found to be 40%. For `COc1ccc(COc2ccc3ccccc3c2C(c2ccccc2)N(C)C)cc1` (stereo not drawn) [Example 38, {[2-(4-Methoxybenzyloxy)-naphthalen-1-yl]-phenylmethyl}-dimethylamine] the value was 81%; for `COc1ccc(C(=O)Oc2ccc3ccccc3c2C(c2ccccc2)N(C)C)cc1` (stereo not drawn) [Example 39, 4-Methoxybenzoic acid 1-(dimethylaminophenylmethyl)-naphthalen-2-yl ester], 21%; for `CN(C)C(c1ccccc1)c1c(OC(=O)c2ccccc2Cl)ccc2ccccc12` (stereo not drawn) [Example 40, 2-Chlorobenzoic acid 1-(dimethylaminophenylmethyl)-naphthalen-2-yl ester], 48%.

In the case of `Oc1ccc2ccccc2c1C(c1ccccc1)N1CCOCC1` (stereo not drawn) [Example 41, 1-(Morpholin-4-yl-phenylmethyl]-naphthalen-2-ol], the “Inhibition of the writhing reaction in %” value was 30%. In the case of `Oc1ccc2ccccc2c1C(c1ccccc1)N1CCCCC1` (stereo not drawn) [Example 42, 1-(Phenylpiperidin-1-yl-methyl)-naphthalen-2-ol], the “Inhibition of the writhing reaction in %” value was found to be 92%.

The record behind these values is patent publication US7202242B2, “Substituted 1 and 2-naphthol Mannich bases” (Gruenenthal GmbH, priority 1999, dated 2007).
